Common to all, as to format: binding
The target in assay [1] is T1, Vasa (Bombyx mori, UniProt O01378).
T1 construct: gene BmVLG
T1 sequence (O01378 135-400): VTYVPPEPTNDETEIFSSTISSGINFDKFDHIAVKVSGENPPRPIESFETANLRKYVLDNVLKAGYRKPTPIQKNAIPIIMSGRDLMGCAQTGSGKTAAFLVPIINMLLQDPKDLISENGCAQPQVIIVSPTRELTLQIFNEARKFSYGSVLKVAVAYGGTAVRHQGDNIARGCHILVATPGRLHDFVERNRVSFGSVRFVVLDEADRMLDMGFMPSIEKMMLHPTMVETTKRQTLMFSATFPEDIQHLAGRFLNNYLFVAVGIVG
The assay can be described thus: NMR CSP titration, fast exchange.

Assay [2] has as its target T2, Vasa (Bombyx mori, UniProt O01378).
T2 construct: gene BmVLG
T2 sequence (O01378 135-564): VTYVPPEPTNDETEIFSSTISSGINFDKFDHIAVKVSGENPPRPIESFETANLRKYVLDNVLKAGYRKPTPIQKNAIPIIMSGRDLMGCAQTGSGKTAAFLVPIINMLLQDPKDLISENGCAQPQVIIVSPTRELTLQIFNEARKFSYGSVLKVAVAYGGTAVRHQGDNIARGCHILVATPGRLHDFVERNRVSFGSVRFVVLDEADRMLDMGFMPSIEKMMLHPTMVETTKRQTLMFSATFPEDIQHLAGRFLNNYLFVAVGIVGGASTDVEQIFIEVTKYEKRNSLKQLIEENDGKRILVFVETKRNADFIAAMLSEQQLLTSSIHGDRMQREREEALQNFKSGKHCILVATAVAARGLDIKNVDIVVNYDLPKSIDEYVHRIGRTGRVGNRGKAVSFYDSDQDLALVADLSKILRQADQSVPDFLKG
Nature of the assay: NMR titration, 1H-13C methyl-HMQC, slow exchange.

For assay [3], the target named is T2, Vasa. Nature of the assay: NMR methyl CSP titration, fast exchange (not saturated; KD inaccurate).

In general, Kd refers to the concentration at which binding is half-saturated. Lower therefore signals higher affinity.

On Vasa [1], `Nc1ncnc2c1ncn2[C@@H]1O[C@H](COP(=O)(O)OP(=O)(O)OP(=O)(O)O)[C@@H](O)[C@H]1O` [ATP] gave a Kd of 1600 ± 600 µM.

Compound `Nc1ncnc2c1ncn2[C@@H]1O[C@H](COP(=O)(O)OP(=O)(O)O)[C@@H](O)[C@H]1O` [ADP] returned a Kd on Vasa [2] of 53 ± 15 µM.

`Nc1ncnc2c1ncn2[C@@H]1O[C@H](CO[P@](=O)(O)O[P@](=O)(O)O[P@@](=O)(O)S)[C@@H](O)[C@H]1O` [ATPγS, adenosine 5′-γ-thiotriphosphate] displayed a Kd on Vasa [3] of roughly 18800 µM.

For the origin of these results see publication PMC11617632, “Long-range conformational changes in the nucleotide-bound states of the DEAD-box helicase Vasa” (Biophysical Journal, 2024).
